Test results taken from US6613536B1, “Synthetic peptides and pharmaceutical compositions comprising them for the treatment of systemic lupus erythematosus” (Yeda Research and Development Co. Ltd., priority 1995, dated 2003).
“Also recorded” adds a separate entry of the source.

Legend:
[1] = system: lymph node cells (LNC) of BALB/c and SJL mice; assay: In vivo inhibition of LNC proliferation responses to the CDR-based peptides; design: species or system mouse; conditions: LNC of treated mice; not shown
Experimental: BALB/c (FIG. 5a) and SJL (FIG. 5b) mice were immunized with peptides Ia and IIIa (20 μg/mouse in CFA i.d. in the hind footpads), respectively. The mice were also injected i.v. with 200 μg of the above peptides in PBS either 3 days prior to immunization (open squares), at the immunization day (open circles) or at both dates (open triangles). Ten days later the mice were sacrificed and their lymph nodes were removed and tested for proliferation in the presence of different concentrations of the immunizing peptide. Control groups were of LNC taken from mice that were immunized but not treated (filled squares), or treated with control peptide, p307 (half filled squares). The culture mixtures were incubated for 96 hours in enriched RPMI medium containing 1% normal mouse serum prior to addition of ^3H-thymidine. Sixteen hours later cells were harvested and radioactivity was counted. Results are expressed as mean CPM of triplicates.

BALB/c mice = assay: Neonatal tolerization of BALB/c mice, then autoantibody titers after immunization; type: in vivo, mouse; conditions: BALB/c neonates, 100 μg i.p. twice; immunized 6-7 weeks later with peptide Ia or mAb 5G12
Experimental: In order to either prevent induction of experimental SLE or to cure mice afflicted with the disease, the following procedures were used: (i) Newborn mice were tolerized with a peptide of the invention (100 μg of the peptide in PBS, intraperitoneally at 24 and 72 hours after birth). Six weeks later, the mice were immunized with the pathogenic autoantibody, e.g. 5G12 (16/6 Id+) and examined for disease manifestations; (ii) A first group of adult mice was injected with various concentrations of the peptides before disease induction with the pathogenic autoantibody or pathogenic T cell line; another group was injected with the peptides to be tested for their therapeutic effect six weeks following immunization at the peak of the serological response; and a further group was treated at 4-6 months post-immunization after the establishment of the overt SLE disease. The number of injections with the peptides was determined based on their effect on the disease induction and progression. The effect of the peptide treatment on T cell proliferation, on the autoantibody production and on the disease manifestations was then evaluated.
In order to further elucidate the role of the peptides in SLE, peptide Ia was utilized for the induction of tolerance in BALB/c mice. Newborn mice were injected twice (at day 1 and 3) with either peptide Ia or a control peptide. […]

[2] = system: peripheral blood lymphocytes (PBL); assay: IL-2 production by PBL of SLE patients and healthy controls; type: cell-based, human; conditions: sample at 24 hr
Experimental: PBL from human SLE patients and of the appropriate control donors (2×10^5/well) were cultured in microtiter plates in enriched medium containing 10% pooled AB sera in the presence of the human or mouse monoclonal 16/6 Id antibody, in the presence of peptides of the invention or in the presence of phytohemagglutinin (PHA). The rate of proliferation was evaluated by the incorporation of ^3[H]-thymidine in the cell culture. Non-relevant peptides were used as specificity controls. Antigen and mitogen-stimulated cytokine production was quantitated in the supernatants of the above cultures using either the cytokine-dependent lines or the appropriate pairs of antibodies in ELISA assays. Inhibition of the proliferative responses was performed in vitro by adding increasing doses of the tested peptide analogs into the proliferative culture mixtures.
PBL were isolated from blood of SLE patients or healthy controls using ficol gradient, and were incubated as in Example 13. A sample of 50 μl was removed 24 hr after the assay was started, and incubated in the presence of IL-2 sensitive cells (CTLD) for 24 hr, after which ^3H-thymidine was added for 16 hr, and the plates were harvested and counted on a beta counter.

[3] = system: T cell line specific to peptide IIIa of SJL origin; assay: Proliferation and cytokine secretion of peptide IIIa-specific T cell line; type: cell-based, mouse
Experimental: A further test which can be conducted is to test for the ability of the analogs to inhibit cytokine secretion by the T cell line or by T lymphocytes oh lymph nodes of mice that are high responders to SLE-inducing autoantibodies. The cytokines are detected as follows: IL-1 activity is assessed either by ELISA using a pair of capture and detecting antibodies (as described below for IL-4, IL-6, IL-10) or using the LBRM-33(1A5) assay (Conlon, 1983) in which 1A5 cells are stimulated in the presence of phytohemagglutinin (PHA), with either supernatants or recombinant IL-1 at various concentrations to secrete IL-2. […] Stimulation of the CTLL line by IL-2 is measured after 24 hr by incorporation of ^3[H]-thymidine. IL-2 is directly detected using the IL-2 dependent CTLL line or by ELISA. Levels of IL-4, IL-6, IL-10, INFγ and TNFα in the supernatants are determined by ELISA using antibodies to the various cytokines (Phamingen, San Diego, Calif., USA) according to the manufacturer's instructions.
T cell lines and clones specific to the 16/6 Id were established from immunized lymph node cells as previously described (Axelrod and Mozes, 1986). […] At the end of 48 hours incubation, 0.5 μCi of ^3H-thymidine were added for an additional 18 hours, after which cells were harvested and radioactivity was counted. […]

Substance | proliferative responses of the LNC to Con A (specificity) [1] | anti-DNA and anti-NE autoantibody titers after neonatal tolerization (BALB/c mice) | IL-2 production by PBL, actual number of responders ([2]; SLE patients) | IL-2 production by PBL, percentage of responders ([2]; SLE patients) | IL-2 production by PBL, actual number of responders ([2]; healthy controls) | IL-2 production by PBL, percentage of responders ([2]; healthy controls) | cytokine secretion of T cell line upon stimulation [3]
TGYYMQWVKQSPEKSLEWIG [peptide Ia] | not inhibited | did not produce significant titers of antibodies to either DNA or nuclear extract antigens; also recorded: produced lower levels of anti-DNA and anti-NE antibodies | 5/32 | 16% | 14/25 | 56% | 
YYYCARFLWEPYAMDYWGQGS (YYCARFLWEPYAMDYWGQGS) [peptide IIIa, based on the CDR3 region of the VH chain of mAb 5G12] | not inhibited |  | 5/32 | 16% | 16/25 | 64% | secreted the Thl-type cytokines, namely, IL-2, IFNγ and TNFα
